pIC50: −log10 of the molar value.
Assays:
[1] = system: cultured human mast cells (CHMC); assay: CHMC low cell density IgE activation: tryptase and LTC4 assays; format: cell-based; details: Low Density CHMC, anti-IgE activation, tryptase readout, read-out: CHMC anti-IgE Tryptase
Outline: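 Degranulation measured after 30 min anti-IgE challenge at 37° C of CHMC plated at 1000-1500 cells/well following 1 h preincubation. Readouts: LTC4 by ELISA on donor-specific diluted supernatants, and tryptase activity from a 30 min room-temperature substrate reaction.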

[2] = system: cultured human mast cells (CHMC); assay: CHMC low cell density ionomycin activation: tryptase assay; format: cell-based; details: Low Density CHMC, ionomycin activation, tryptase readout, read-out: CHMC Ionomycin Tryptase

SMILES	pIC50 ([1]; Homo sapiens, Mast cell)	pIC50 ([2]; Homo sapiens, Mast cell)	pIC50 [1]	pIC50 [2]
OCCOc1ccc(Nc2ncc(F)c(Nc3ccc4oc(CO)cc4c3)n2)cc1 [Compound R935174, 5-Fluoro-N2-[4-(2-hydroxyethoxy)phenyl]-N4-(2-hydroxymethylbenzofur-5-yl)-2,4-pyrimidinediamine]	5.86	< 5.00	–	–
CC(C)Oc1ccc(Nc2nc(Nc3ccc(OCC(O)CO)cc3)ncc2F)cc1 (centres unmarked) [Compound R935175, N2-[4-(2,3-Dihydroxypropoxy)phenyl]-5-fluoro-N4-(4-isopropoxyphenyl)-2,4-pyrimidinediamine]	6.05	< 5.00	–	–
OCCOc1cccc(Nc2nc(Nc3ccc4c(c3)OCCO4)ncc2F)c1 [Compound R935176, N2-(3,4-Ethylenedioxyphenyl)-5-fluoro-N4-[3-(2-hydroxyethoxy)phenyl]-2,4-pyrimidinediamine]	5.93	< 5.00	–	–
OCCOc1cccc(Nc2ncc(F)c(Nc3ccc4oc(CO)cc4c3)n2)c1 [Compound R935178, 5-Fluoro-N2-[3-(2-hydroxyethyloxy)phenyl]-N4-(2-hydroxymethylbenzofur-5-yl)-2,4-pyrimidinediamine]	6.29	< 5.00	–	–
OCC(O)COc1ccc(Nc2ncc(F)c(Nc3cccc(O)c3)n2)cc1 (centres unmarked) [Compound R935180, N2-[4-(2,3-Dihydroxypropoxy)phenyl]-5-fluoro-N4-(3-hydroxyphenyl)-2,4-pyrimidinediamine]	5.91	< 5.00	–	–
COc1cc(Nc2nc(Nc3cccc(OCCO)c3)ncc2F)cc(OC)c1 [Compound R935181, N4-(3,5-Dimethoxyphenyl)-5-fluoro-N2-[3-(2-hydroxyethoxy)phenyl]-2,4-pyrimidinediamine]	5.75	< 5.00	–	–
Cn1nc(I)c2cc(Nc3ncc(F)c(Nc4ccc(I)c(O)c4I)n3)ccc21 [Compound R935221, N4-(2,4-Diiodo-3-hydroxypheny)-5-fluoro-N2-(3-iodo-1-methyl-indazoline-5-yl)-2,4-pyrimidinediamine]	–	–	< 5.00	< 5.00
COC(=O)Cn1ncc2cc(Nc3ncc(F)c(Nc4ccc(OC(C)C)cc4)n3)ccc21 [Compound R935222, 5-Fluoro-N4-(4-isopropoxyphenyl)-N2-[1-(methoxycarbonyl)methyl-indazoline-5-yl]-2,4-pyrimidinediamine]	–	–	6.28	< 5.00
COC(=O)Cn1ncc2cc(Nc3ncc(F)c(Nc4ccc5c(c4)OCCO5)n3)ccc21 [Compound R935223, N4-(3,4-Ethylenedioxyphenyl)-5-fluoro-N2-[1-(methoxycarbonyl)methyl-indazoline-5-yl]-2,4-pyrimidinediamine]	–	–	6.33	< 5.00
CNC(=O)Cn1ncc2ccc(Nc3nc(Nc4ccc(OC(C)C)cc4)ncc3F)cc21 [Compound R935224, 5-Fluoro-N2-(4-isopropoxyphenyl)-N4-[1-(N-methylaminocarbonyl)methyl-indazoline-6-yl]-2,4-pyrimidinediamine]	–	–	5.34	< 5.00
CNC(=O)Cn1ncc2ccc(Nc3nc(Nc4ccc5c(c4)OCCO5)ncc3F)cc21 [Compound R935225, N2-(3,4-Ethylenedioxyphenyl)-5-fluoro-N4-[1-(N-methylaminocarbonyl)methyl-indazoline-6-yl]-2,4-pyrimidinediamine]	–	–	5.19	< 5.00
COC(=O)Cn1ncc2cc(Nc3ncc(F)c(Nc4cccc(O)c4)n3)ccc21 [Compound R935237, 5-Fluoro-N4-(3-hydroxyphenyl)-N2-[1-(methoxycarbonyl)methyl-indazoline-5-yl]-2,4-pyrimidinediamine]	–	–	6.62	< 5.00
OCCn1ncc2ccc(Nc3ncc(F)c(Nc4ccc5cnn(CCO)c5c4)n3)cc21 [Compound R935238, N2,N4-Bis[1-(2-hydroxyethyl)indazoline-6-yl]-5-fluoro-2,4-pyrimidinediamine]	–	–	5.73	< 5.00
Fc1cnc(Nc2ccc3c(c2)OCCO3)nc1Nn1cccc1 [Compound R935277, N2-(3,4-Ethylenedioxyphenyl)-5-Fluoro-N4-(1H-pyrrol-1-yl)-2,4-pyrimidinediamine]	4.64	5.05	–	–
Oc1cccc(Nc2ncc(F)c(Nn3cccc3)n2)c1 [Compound R935278, 5-Fluoro-N2-(3-hydroxyphenyl)-N4-(1H-pyrrol-1-yl)-2,4-pyrimidinediamine]	5.32	< 5.00	–	–
COc1ccc(Nc2ncc([N+](=O)[O-])c(Nc3ccc(OC)c(OC)c3)n2)cc1OC [Compound R940089, N2,N4-Bis-(3,4-dimethoxypenyl)-5-nitro-2,4-pyrimidinediamine]	–	–	< 5.00	< 5.00
CCOc1ccc(Nc2ncc([N+](=O)[O-])c(Nc3ccc(OCC)cc3)n2)cc1 [Compound R940090, N2,N4-Bis-(4-ethoxypenyl)-5-nitro-2,4-pyrimidinediamine]	–	–	< 5.00	< 5.00

SMILES	pIC50 ([1]; Homo sapiens, Mast cell)	pIC50 ([2]; Homo sapiens, Mast cell)	pIC50 [1]	pIC50 [2]
O=[N+]([O-])c1cnc(Nc2ccc3c(c2)OCCO3)nc1Nc1ccc2c(c1)OCCO2 [Compound R940095, N2,N4-Bis-(3,4-ethylenedioxyphenyl)-5-nitro-2,4-pyrimidinediamine]	< 5.00	< 5.00	–	–
O=[N+]([O-])c1cnc(Nc2ccc3c(c2)OC(F)(F)O3)nc1Nc1ccc2c(c1)OC(F)(F)O2 [Compound R940100, N2,N4-Bis-(2,2-difluoro-1,3-benzodioxol-5-yl)-5-nitro-2,4-pyrimidinediamine]	< 5.00	< 5.00	–	–
Oc1c(Cl)cc(Nc2ncc(F)c(Nc3cc(Cl)c(O)c(Cl)c3)n2)cc1Cl [Compound R940215, N2,N4-Bis-(3,5-dichloro-4-hydroxyphenyl)-5-fluoro-2,4-pyrimidinediamine]	6.07	< 5.00	–	–
Cc1c(O)ccc(Nc2ncc(F)c(Nc3ccc(O)c(C)c3C)n2)c1C [Compound R940217, N2,N4-Bis-(2,3-dimethyl-4-hydroxyphenyl)-5-fluoro-2,4-pyrimidinediamine]	< 5.00	< 5.00	–	–
CC(=O)Nc1ccc(Nc2ncc(F)c(Nc3ccc(NC(C)=O)cc3)n2)cc1 [Compound R940222, N2,N4-Bis-(4-Acetamidophenyl)-5-fluoro-2,4-pyrimidinediamine]	< 5.00	< 5.00	–	–
Cc1cc(Nc2nc(Nc3cccc(O)c3)ncc2F)cc(Cl)c1O [Compound R940235, N4-(3-Chloro-4-hydroxy-5-methylphenyl)-5-fluoro-N2-(3-hydroxyphenyl)-2,4-pyrimidinediamine]	6.10	< 5.00	–	–
CC(C)(C)c1cccc(Nc2ncc(F)c(Nc3cccc(O)c3)n2)c1 [Compound R940257, N2-(3-tert-Butylphenyl)-5-fluoro-N4-(3-hydroxyphenyl)-2,4-pyrimidinediamine]	6.18	< 5.00	–	–
COc1ccc(Nc2nc(Nc3cccc(C(C)(C)C)c3)ncc2F)cc1OC [Compound R940260, N2-(3-tert-Butylphenyl)-N4-(3,4-dimethoxyphenyl)-5-fluoro-2,4-pyrimidinediamine]	5.95	< 5.00	–	–
Oc1cccc(Nc2nc(NCCN3CCN(Cc4ccccc4)CC3)ncc2F)c1 [Compound R940261, N2-[2-(N-Benzylpiperazino)ethyl]-5-fluoro-N4-(3-hydroxyphenyl)-2,4-pyrimidinediamine]	< 5.00	< 5.00	–	–
COc1ccc(Nc2nc(NCCN3CCN(Cc4ccccc4)CC3)ncc2F)cc1OC [Compound R940262, N2-[2-(N-Benzylpiperazino)ethyl]-N4-(3,4-dimethoxyphenyl)-5-fluoro-2,4-pyrimidinediamine]	< 5.00	< 5.00	–	–
Cc1cc(Nc2ncc(F)c(Nc3cccc(C(C)(C)C)c3)n2)cc(Cl)c1O [Compound R940271, N4-(3-tert-Butylphenyl)-N2-(3-chloro-4-hydroxy-5-methylphenyl)-5-fluoro-2,4-pyrimidinediamine]	6.40	5.17	–	–
CC(C)(C)C(=O)Nc1cccc(Nc2ncc(F)c(Nc3cccc(O)c3)n2)c1 [Compound R940275, N2-(3-tert-Butylcarbonylaminophenyl)-N4-(3-hydroxyphenyl)-5-fluoro-2,4-pyrimidinediamine]	6.06	< 5.00	–	–
COC(=O)c1cc2cc(Nc3ncc(F)c(Nc4cccc(C(C)(C)C)c4)n3)ccc2o1 [Compound R940281, N4-(3-tert-Butylphenyl)-5-fluoro-N2-(2-methoxycarbonylbenzofur-5-yl)-2,4-pyrimidinediamine]	6.28	5.26	–	–
COC(=O)c1cc2cc(Nc3ncc(F)c(Nc4cccc(C(C)C)c4)n3)ccc2o1 [Compound R940283, 5-fluoro-N4-(3-isopropylphenyl)-N2-(2-methoxycarbonylbenzofur-5-yl)-2,4-pyrimidinediamine]	6.26	5.30	–	–
CNC(=O)c1cc2cc(Nc3ncc(F)c(Nc4cccc(C(C)(C)C)c4)n3)ccc2o1 [Compound R940291, N4-(3-tert-Butylphenyl)-5-fluoro-N2-[2-(N-methylamino)carbonylbenzofur-5-yl]-2,4-pyrimidinediamine]	6.40	< 5.00	–	–
CC(C)c1cccc(Nc2ncc(F)c(Nc3cccc(C(C)C)c3)n2)c1 [Compound R940297, N2,N4-Bis(3-isopropylphenyl)-5-fluoro-2,4-pyrimidinediamine]	5.46	5.00	–	–
COC(=O)c1cc(Nc2ncc(F)c(Nc3cccc(O)c3)n2)ccc1OC [Compound R940301, 5-Fluoro-N4-(3-hydroxyphenyl)-N2-(3-methyloxycarbonyl-4-methoxyphenyl)-2,4-pyrimidinediamine]	5.70	< 5.00	–	–
